SMILES | melting point
Cl.Cn1c(-c2ccccc2)c(CN2CCC(c3c(Cl)cccc3Cl)CC2)c2ccccc21 | 179 to 184 °C (dec.)
Cl.Clc1cccc(Cl)c1C1CCN(Cc2c[nH]c3ccccc23)CC1 | 189 to 190 °C
CCCn1c(-c2ccccc2)c(CN2CCC(c3c(Cl)cccc3Cl)CC2)c2ccccc21.Cl | 150 to 152 °C
Cc1[nH]c2ccccc2c1CN1CCC(c2c(Cl)cccc2Cl)CC1 | 168 to 170 °C
Cl.Clc1cccc(Cl)c1C1CCN(Cc2c(-c3ccccc3)n(Cc3ccccc3)c3ccccc23)CC1 | 209 to 210 °C
Cl.OCCn1c(-c2ccccc2)c(CN2CCC(c3c(Cl)cccc3Cl)CC2)c2ccccc21 | 205 to 206 °C
Cl.Clc1cccc(Cl)c1C1CCN(Cc2c(-c3ccccc3)[nH]c3ccccc23)CC1 | 169 to 171 °C

Continued, values first:

melting point | SMILES
139 to 141 °C | Cc1c(CN2CCC(c3c(Cl)cccc3Cl)CC2)[nH]c2ccccc12
263 to 265 °C | Cl.OCCn1c(CN2CCC(c3c(Cl)cccc3Cl)CC2)cc2ccccc21
238 to 240 °C | Cl.Clc1cccc(Cl)c1C1CCN(Cc2cc3ccccc3[nH]2)CC1
128 to 130 °C | Cc1cccc(C)c1C1CCN(Cc2cc3ccccc3[nH]2)CC1
162 to 164 °C | Clc1cccc(Cl)c1C1CCN(Cc2[nH]c3ccccc3c2-c2ccccc2)CC1

— patent publication US20070197603A1 (published 2007)
